Data taken from patent US20100016213A1, “USE OF A DITERPENOID COMPOUND FOR TREATING DIABETES” (National Taiwan University, priority 2008, published 2010).

What was measured:
Type in all cases: in vivo
normal mice [1] = experiment: Lowering plasma glucose level, intraperitoneal injection, normal mice; details: for Plasma Glucose Level, After / Plasma Glucose Level, Before: Normal mice; for Plasma Glucose Level, After: after treatment; for Plasma Glucose Level, Before: before treatment
Experimental: (§1) Normal and streptozotocin (STZ)-induced diabetic mice were administered with borapetoside A (5.0 mg/kg), borapetoside C (5.0 mg/kg), glibenclamide (5.0 mg/kg), metformin (500.0 mg/kg), or a vehicle control via intraperitoneal injection. STZ-induced diabetic mice are a well-known mouse model of type I diabetes (insulin dependent). See, e.g., Liu I M, et al., Neuroscience Letters 2001; 307: 81-84. Glibenclamide and metformin serve as two positive controls in this study.
(§2) The plasma glucose levels of the treated mice were determined before and one hour after administration. The activity of lowering plasma glucose levels (AL) is calculated following the formula: […]
(§3) Borapetoside C was administered to normal mice at 0.1, 1.0, 3.0, and 5.0 mg/kg and to STZ-diabetic mice at 0.1, 1.0, 3.0, and 5.0 mg/kg. The plasma glucose levels of the treated mice were examined before and after treatment.

[2] = tested on: STZ-induced diabetic mice; experiment: Lowering plasma glucose level, intraperitoneal injection, STZ-induced diabetic mice (type I diabetes model); details: for Plasma Glucose Level, After: after treatment; for Plasma Glucose Level, Before: before treatment
Experimental: as §1, §2, §3

normal mice [3] = experiment: Lowering plasma glucose levels via oral administration, normal mice; details: oral 10.0 mg/kg, sixty minutes after treatment, mean ± SEM, six animals
Experimental: (§4) Normal, STZ-induced diabetic mice, and diet-induced diabetic mice were administered orally with 10.0 mg/kg borapetoside C, glibenclamide or metformin as a positive control, and a vehicle control. The plasma glucose levels of the treated mice were determined before and sixty minutes after treatment and the results thus obtained were shown in Table 3 below.

STZ-diabetic mice (IDDM) [4] = experiment: Lowering plasma glucose levels via oral administration, STZ-diabetic mice; details: oral 10.0 mg/kg, sixty minutes after treatment, mean ± SEM, six animals
Experimental: as §4

STZ-diabetic mice (IDDM) [5] = experiment: Plasma insulin levels before and after treatment (Insulin ELISA), STZ-diabetic mice; details: for Plasma insulin, Pre-treatment: before treatment; for Plasma insulin, post-treatment: one hour after treatment
Experimental: Normal mice, STZ-induced diabetic mice, and diet-induced diabetic mice were administered with a vehicle control, borapetoside A (5.0 mg/kg), borapetoside C (at various doses), glibenclamide (5.0 mg/kg) or metformin (500 mg/kg) by intraperitoneal injection. These mice were examined for their blood insulin levels before and one hour after treatment, using the Insulin(Rat) ELISA kit obtained from Penisula Lab. Inc., San Carlos, Calif., USA.

normal mice [6] = experiment: Glycogen content in skeletal muscle, normal mice; details: 5 mg/kg i.p., 30 minutes after injection
Experimental: (§5) Normal, STZ-induced diabetic, and DIO-induced diabetic mice were intraeritoneally injected with borapetoside C (5 mg/kg) and Actrapid (0.5 IU/kg; a short-acting insulin provided by Novo Nordisk) or metformin (500 mg/kg). Their glycogen contents in skeletal muscle were determined 30 minutes after injections.

STZ-diabetic mice(IDDM) = experiment: Glycogen content in skeletal muscle, STZ-diabetic mice; details: 5 mg/kg i.p., 30 minutes after injection
Experimental: as §5

[7] = tested on: DIO-induced diabetic mice(NIDDM); experiment: Glycogen content in skeletal muscle, DIO-induced diabetic mice; details: 5 mg/kg i.p., 30 minutes after injection
Experimental: as §5

[8] = tested on: DIO-induced diabetic mice; experiment: Intraperitoneal glucose tolerance test (IPGTT), DIO-induced diabetic mice; details: diet-induced diabetic mice, borapetoside C 5.0 mg/kg
Experimental: Normal ICR mice and DIO-induced diabetic mice, treated with borapetoside C (5.0 mg/kg), a vehicle control, or glibenclamide (positive control), were subjected to an intraperitoneal glucose tolerance test (IPGTT) as described in Lamont et al., Diabetes 2008; 57: 190-198. More specifically, glucose (2.0 mg/g body weight) was administered via IP injection to normal and DIO mice and blood samples were drawn from the treated mice before and 30, 60, 120, and 150 min after glucose administration for examination of glucose levels.
In diet-induced diabetic mice treated with borapetoside C, the vehicle control, and glibenclamide, the basal plasma glucose concentrations were 181.6±12.3 mg/dL, 183.1±2.9 mg/dL, and 185.3±7.7 mg/dL, respectively. Thirty minutes after intraperitoneal glucose injection, the plasma glucose concentration was elevated to 405.6±8.9 mg/dL in vehicle-treated mice, to 343.5±11.2 mg/dL in borapetoside C-treated mice, or to 339.1±15.4 mg/dL in glibenclamide-treated mice.

[9] = tested on: STZ-induced diabetic mice; experiment: Insulin sensitivity: plasma glucose reduction with insulin plus borapetoside C or vehicle, STZ-induced diabetic mice; details: thirty minutes after insulin
Experimental: (§6) The effect of borapetoside C on insulin sensitivity was tested following the method described in Liu, et al., Clinical and Experimental Pharmacology and Physiology 2005; 32: 649-654. Normal mice (n=6), STZ-induced diabetic mice (n=5), and DIO-induced diabetic mice (n=7) were treated with insulin at various doses (i.e., 0.1 IU/kg, 0.5 IU/kg, and 1.0 IU/kg) together with either borapetoside C (0.1 mg/kg) or a vehicle control. Their plasma glucose levels were examined before and thirty minutes after insulin administration. The activity of lowering plasma glucose levels (AL) was calculated following the formula described in Example 2 above.

[10] = tested on: DIO-induced diabetic mice; experiment: Insulin sensitivity: plasma glucose reduction with insulin plus borapetoside C or vehicle, DIO-induced diabetic mice; details: thirty minutes after insulin
Experimental: as §6

[11] = tested on: liver phosphoenolpyruvate carboxykinase (PEPCK); experiment: Liver PEPCK levels by western blot in STZ-induced mice; details: borapetoside C 5.0 mg/kg, twice per day for 7 days, insulin dose not given
Experimental: To characterize the effect of borapetoside C on liver glucose utilization, levels of liver phosphoenolpyruvate carboxykinase (PEPCK) were examined by western blot analysis in STZ-induced mice treated with borapetoside C (5.0 mg/kg, twice per day for 7 days), insulin, or a vehicle control.

[12] = Borapetoside C 0.1 mg/kg together with Insulin 0.1 IU/kg
[13] = Borapetoside C 0.1 mg/kg together with Insulin 0.5 IU/kg
[14] = Borapetoside C 0.1 mg/kg together with Insulin 1.0 IU/kg

COC(=O)C1=CCC[C@H]2[C@]3(C)C[C@@H](c4ccoc4)OC(=O)[C@@H]3C[C@@H](O[C@@H]3O[C@H](CO)[C@@H](O)[C@H](O)[C@H]3O)[C@@]12C [borapetoside C]
Plasma Glucose Level, After (normal mice [1]; 0.1 mg/kg): 97.7 ± 6.2 mg/dL
Plasma Glucose Level, Before (normal mice [1]; 0.1 mg/kg): 99.7 ± 3.8 mg/dL
Plasma Glucose Level, After (normal mice [1]; 1.0 mg/kg): 82.6 ± 2.9 mg/dL
Plasma Glucose Level, Before (normal mice [1]; 1.0 mg/kg): 96.4 ± 4.2 mg/dL
Plasma Glucose Level, After (normal mice [1]; 3.0 mg/kg): 79.4 ± 6.9 mg/dL
Plasma Glucose Level, Before (normal mice [1]; 3.0 mg/kg): 96.3 ± 8.0 mg/dL
Plasma Glucose Level, After (normal mice [1]; 5.0 mg/kg): 67.0 ± 4.5 mg/dL
Plasma Glucose Level, Before (normal mice [1]; 5.0 mg/kg): 98.2 ± 3.9 mg/dL
Activities of Lowering Plasma Glucose Levels (AL) (normal mice [1]; normal mice, 5.0 mg/kg intraperitoneal injection, one hour after administration): 36.2 ± 5.6%
Plasma Glucose Level, After ([2]; 0.1 mg/kg): 529.0 ± 14.7 mg/dL
Plasma Glucose Level, Before ([2]; 0.1 mg/kg): 580.0 ± 7.8 mg/dL
Plasma Glucose Level, After ([2]; 1.0 mg/kg): 472.2 ± 13.9 mg/dL
Plasma Glucose Level, Before ([2]; 1.0 mg/kg): 566.6 ± 11.4 mg/dL
Plasma Glucose Level, After ([2]; 3.0 mg/kg): 493.8 ± 15.3 mg/dL
Plasma Glucose Level, Before ([2]; 3.0 mg/kg): 572.2 ± 16.2 mg/dL
Activities of Lowering Plasma Glucose Levels (AL) ([2]; 5.0 mg/kg intraperitoneal injection, one hour after administration): 16.5 ± 2.9%
Plasma Glucose Level, After ([2]; 5.0 mg/kg): 481.1 ± 20.8 mg/dL
Plasma Glucose Level, Before ([2]; 5.0 mg/kg): 576.0 ± 11.1 mg/dL
Activity of lowing plasma glucose levels (%) (normal mice [3]): 23.1 ± 2.8 %
Activity of lowing plasma glucose levels (%) (STZ-diabetic mice (IDDM) [4]): 17.7 ± 1.7 %
Plasma insulin, Pre-treatment (STZ-diabetic mice (IDDM) [5]; 0.1 mg/kg i.p.): 15.2 ± 0.8 pmol/L
Plasma insulin, post-treatment (STZ-diabetic mice (IDDM) [5]; 0.1 mg/kg i.p.): 16.3 ± 0.9 pmol/L
Plasma insulin, Pre-treatment (STZ-diabetic mice (IDDM) [5]; 0.5 mg/kg i.p.): 15.5 ± 0.6 pmol/L
Plasma insulin, post-treatment (STZ-diabetic mice (IDDM) [5]; 0.5 mg/kg i.p.): 15.9 ± 0.6 pmol/L
Plasma insulin, Pre-treatment (STZ-diabetic mice (IDDM) [5]; 1.0 mg/kg i.p.): 15.7 ± 0.8 pmol/L
Plasma insulin, post-treatment (STZ-diabetic mice (IDDM) [5]; 1.0 mg/kg i.p.): 15.9 ± 0.4 pmol/L
Plasma insulin, Pre-treatment (STZ-diabetic mice (IDDM) [5]; 3.0 mg/kg i.p.): 13.8 ± 1.6 pmol/L
Plasma insulin, post-treatment (STZ-diabetic mice (IDDM) [5]; 3.0 mg/kg i.p.): 14.8 ± 0.5 pmol/L
Plasma insulin, Pre-treatment (STZ-diabetic mice (IDDM) [5]; 5.0 mg/kg i.p.): 15.0 ± 0.5 pmol/L
Plasma insulin, post-treatment (STZ-diabetic mice (IDDM) [5]; 5.0 mg/kg i.p.): 14.4 ± 0.6 pmol/L
Glycogen content (μmol/g wet weight) (normal mice [6]): 25.1 ± 1.3 μmol/g wet weight
Glycogen content (μmol/g wet weight) (STZ-diabetic mice(IDDM)): 23.2 ± 0.7 μmol/g wet weight
Glycogen content (μmol/g wet weight) [7]: 23.3 ± 0.4 μmol/g wet weight
basal plasma glucose concentration (IPGTT) ([8]; before glucose injection): 181.6 ± 12.3 mg/dL
plasma glucose levels at 60 min, 120 min, and 150 min versus control mice (IPGTT) ([8]; glucose 2.0 mg/g IP): significantly lower
plasma glucose concentration thirty minutes after intraperitoneal glucose injection (IPGTT) ([8]; glucose 2.0 mg/g body weight IP, vehicle 405.6±8.9): 343.5 ± 11.2 mg/dL
AL (%) [9, 12]: 10.5 ± 1.4%
AL (%) [9, 13]: 18.9 ± 2.1%
AL (%) [9, 14]: 32.2 ± 2.1 %
AL (%) [10, 12]: 24.0 ± 1.1%
AL (%) [10, 13]: 31.6 ± 1.6%
AL (%) [10, 14]: 42.5 ± 0.8 %
liver PEPCK levels versus vehicle control-treated mice (western blot) [11]: much lower
